Measurements reported in patent US20250115600A1, “COVALENT MODIFIERS OF AKT1 AND USES THEREOF” (Terremoto Biosciences, Inc., priority 2022, published 2025).

How the values were obtained:
Test in all cases: Live cell target engagement (NanoBRET) in HEK293 cells
Type in all cases: cell-based
AKT1 E17K = AKT1 E17K (Homo sapiens (Human), UniProt P31749, E17K); settings: for IC50: HEK293, 2 hours at 37° C.
AKT1 WT = AKT1 WT (Homo sapiens (Human), UniProt P31749); settings: HEK293, 2 hours at 37° C.
AKT2 = AKT2 (Homo sapiens (Human), UniProt P31751); settings: HEK293, 2 hours at 37° C.
Sequence of AKT2 (P31751 whole entry): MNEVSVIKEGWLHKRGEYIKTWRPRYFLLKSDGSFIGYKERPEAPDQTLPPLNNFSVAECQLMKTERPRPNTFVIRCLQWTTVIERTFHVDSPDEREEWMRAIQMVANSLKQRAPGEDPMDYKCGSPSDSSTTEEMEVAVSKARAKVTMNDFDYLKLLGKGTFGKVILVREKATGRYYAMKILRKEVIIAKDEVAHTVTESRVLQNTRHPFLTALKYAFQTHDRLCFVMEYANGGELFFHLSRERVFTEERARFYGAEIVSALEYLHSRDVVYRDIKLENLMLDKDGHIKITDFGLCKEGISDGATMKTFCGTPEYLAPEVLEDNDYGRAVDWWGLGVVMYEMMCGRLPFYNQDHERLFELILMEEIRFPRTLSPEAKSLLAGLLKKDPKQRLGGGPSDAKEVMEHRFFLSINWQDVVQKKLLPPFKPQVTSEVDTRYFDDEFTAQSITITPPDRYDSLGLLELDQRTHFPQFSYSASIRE

Sequence of AKT1 WT (P31749 whole entry): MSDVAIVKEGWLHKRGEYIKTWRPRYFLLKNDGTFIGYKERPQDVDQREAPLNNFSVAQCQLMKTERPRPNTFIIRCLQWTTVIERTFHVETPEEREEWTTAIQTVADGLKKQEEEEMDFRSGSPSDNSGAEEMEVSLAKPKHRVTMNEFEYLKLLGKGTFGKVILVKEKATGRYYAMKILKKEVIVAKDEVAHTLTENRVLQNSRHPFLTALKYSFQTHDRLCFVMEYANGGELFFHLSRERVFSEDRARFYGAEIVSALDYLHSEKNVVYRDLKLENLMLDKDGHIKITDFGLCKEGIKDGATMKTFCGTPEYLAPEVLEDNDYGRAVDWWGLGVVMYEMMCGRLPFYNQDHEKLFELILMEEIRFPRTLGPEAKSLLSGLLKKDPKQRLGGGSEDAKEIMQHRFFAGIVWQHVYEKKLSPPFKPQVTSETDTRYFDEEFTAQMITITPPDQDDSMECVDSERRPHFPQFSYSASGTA
Sequence of AKT1 E17K (P31749 whole entry E17K): as the sequence (P31749 whole entry) above, with E17K counted along it

| Compound | AKT1 E17K IC50: Selectivity vs AKT1 WT (AKT1 E17K) | AKT1 E17K IC50: Selectivity vs AKT2 (AKT1 E17K) | IC50 (AKT1 E17K) | IC50 (AKT1 WT) | IC50 (AKT2) |
| --- | --- | --- | --- | --- | --- |
| Nc1ncccc1-c1nc2ccc(-c3ccccc3)nc2n1-c1ccc(CCNC(=O)c2ccc(C=O)c(O)c2)cc1 [Compound 111, N-(2-{4-[2-(2-aminopyridin-3-yl)-5-phenylimidazo[4,5-b]pyridin-3-yl]phenyl}ethyl)-4-formyl-3-hydroxybenzamide] | 0.83 | 6.3 | < 100 nM | < 100 nM | 100 to 500 nM |
| Nc1ncccc1-c1nc2ccc(-c3ccccc3)nc2n1-c1ccc(C(=O)NCCc2ccc(C=O)c(O)c2)cn1 [Compound 112, 6-[2-(2-aminopyridin-3-yl)-5-phenylimidazo[4,5-b]pyridin-3-yl]-N-[2-(4-formyl-3-hydroxyphenyl)ethyl]pyridine-3-carboxamide] | 1 | 1 | > 500 nM | > 500 nM | > 500 nM |
| Nc1ncccc1-c1nc2ccc(-c3cccnc3)nc2n1-c1ccc(CNCCc2ccc(C=O)c(O)c2)cc1 [Compound 113, 4-(2-((4-(2-(2-aminopyridin-3-yl)-5-(pyridin-3-yl)-3H-imidazo[4,5-b]pyridin-3-yl)benzyl)amino)ethyl)-2-hydroxybenzaldehyde] | 2.5 | 57 | < 100 nM | 100 to 500 nM | > 500 nM |
| CC(NC(=O)Cc1ccc(C=O)c(O)c1)c1ccc(-n2c(-c3cccnc3N)nc3ccc(-c4ccccc4)nc32)cc1 (stereo not drawn) [Compound 116, N-(1-{4-[2-(2-aminopyridin-3-yl)-5-phenylimidazo[4,5-b]pyridin-3-yl]phenyl}ethyl)-2-(4-formyl-3-hydroxyphenyl)acetamide] | 1.9 | 10 | < 100 nM | < 100 nM | 100 to 500 nM |
| Nc1ncccc1-c1nc2ccc(-c3ccccc3)nc2n1-c1ccc(NC(=O)CCc2ccc(C=O)c(O)c2)cc1 [Compound 118, N-(4-(2-(2-aminopyridin-3-yl)-5-phenyl-3H-imidazo[4,5-b]pyridin-3-yl)phenyl)-3-(4-formyl-3-hydroxyphenyl)propanamide] | 1.6 | 29 | < 100 nM | < 100 nM | 100 to 500 nM |
| CC(NCCc1ccc(O)c(C=O)c1)c1ccc(-n2c(-c3cccnc3N)nc3ccc(-c4ccccc4)nc32)cc1 (stereo not drawn) [Compound 126, 5-(2-((1-(4-(2-(2-aminopyridin-3-yl)-5-phenyl-3H-imidazo[4,5-b]pyridin-3-yl)phenyl)ethyl)amino)ethyl)-2-hydroxybenzaldehyde] | 5 | 12 | < 100 nM | < 100 nM | 100 to 500 nM |
| Nc1ncccc1-c1nc2ccc(-c3ccccc3)nc2n1-c1ccc(CNCCc2cc(O)c(C=O)cc2F)cc1 [Compound 128, 4-(2-((4-(2-(2-aminopyridin-3-yl)-5-phenyl-3H-imidazo[4,5-b]pyridin-3-yl)benzyl)amino)ethyl)-5-fluoro-2-hydroxybenzaldehyde] | 0.15 | 0.93 | 100 to 500 nM | < 100 nM | 100 to 500 nM |
| Nc1ncccc1-c1nc2ccc(-c3ccccc3)nc2n1-c1ccc(CNCCCc2ccc(C=O)c(O)c2)cc1 [Compound 130, 4-(3-((4-(2-(2-aminopyridin-3-yl)-5-phenyl-3H-imidazo[4,5-b]pyridin-3-yl)benzyl)amino)propyl)-2-hydroxybenzaldehyde] | 1.5 | 7 | < 100 nM | < 100 nM | 100 to 500 nM |
| Nc1ncccc1-c1nc2ccc(-c3ccccc3)nc2n1-c1ccc(C(=O)NCCc2ccc(C=O)c(O)c2)cc1 [Compound 131, 4-(2-(2-aminopyridin-3-yl)-5-phenyl-3H-imidazo[4,5-b]pyridin-3-yl)-N-(4-formyl-3-hydroxyphenethyl)benzamide] | 1.6 | 13 | < 100 nM | < 100 nM | 100 to 500 nM |
| Nc1ncccc1-c1nc2ccc(-c3ccccc3)nc2n1-c1ccc(C2(NCCc3ccc(C=O)c(O)c3)CCC2)cc1 [Compound 134, 4-(2-((1-(4-(2-(2-aminopyridin-3-yl)-5-phenyl-3H-imidazo[4,5-b]pyridin-3-yl)phenyl)cyclobutyl)amino)ethyl)-2-hydroxybenzaldehyde] | 2.3 | 4.3 | > 500 nM | > 500 nM | > 500 nM |
| Nc1ncccc1-c1nc2ccc(-c3ccccc3)nc2n1-c1ccc(CNCCc2ccc(O)c(C=O)c2)cc1 [Compound 135, 5-(2-((4-(2-(2-aminopyridin-3-yl)-5-phenyl-3H-imidazo[4,5-b]pyridin-3-yl)benzyl)amino)ethyl)-2-hydroxybenzaldehyde] | 0.16 | 0.72 | < 100 nM | < 100 nM | < 100 nM |
| Nc1ncccc1-c1nc2ccc(-c3ccccc3)nc2n1-c1ccc(CN2CCC(c3ccc(O)c(C=O)c3)CC2)cc1 [Compound 136, 5-(1-(4-(2-(2-aminopyridin-3-yl)-5-phenyl-3H-imidazo[4,5-b]pyridin-3-yl)benzyl)piperidin-4-yl)-2-hydroxybenzaldehyde] | 1.3 | 1.9 | < 100 nM | < 100 nM | < 100 nM |

Next, values leading:

| AKT1 E17K IC50: Selectivity vs AKT1 WT (AKT1 E17K) | AKT1 E17K IC50: Selectivity vs AKT2 (AKT1 E17K) | IC50 (AKT1 E17K) | IC50 (AKT1 WT) | IC50 (AKT2) | Compound |
| --- | --- | --- | --- | --- | --- |
| 1.2 | 4.9 | < 100 nM | 100 to 500 nM | 100 to 500 nM | CC(NC(=O)Cc1ccc(O)c(C=O)c1)c1ccc(-n2c(-c3cccnc3N)nc3ccc(-c4ccccc4)nc32)cc1 (stereo not drawn) [Compound 115, N-(1-(4-(2-(2-aminopyridin-3-yl)-5-phenyl-3H-imidazo[4,5-b]pyridin-3-yl)phenyl)ethyl)-2-(3-formyl-4-hydroxyphenyl)acetamide] |
| 2.9 | 18 | < 100 nM | 100 to 500 nM | > 500 nM | Nc1ncccc1-c1nc2ccc(-c3ccncc3)nc2n1-c1ccc(CNCCc2ccc(C=O)c(O)c2)cc1 [Compound 119, 4-{2-[({4-[2-(2-aminopyridin-3-yl)-5-(pyridin-4-yl)imidazo[4,5-b]pyridin-3-yl]phenyl}methyl)amino]ethyl}-2-hydroxybenzaldehyde] |
| 0.86 | 2.3 | < 100 nM | < 100 nM | 100 to 500 nM | Nc1ncccc1-c1nc2ccc(-c3ccccc3)nc2n1-c1ccc(CNCCc2ccc(C=O)c(O)c2Cl)cc1 [Compound 120, 4-{2-[({4-[2-(2-aminopyridin-3-yl)-5-phenylimidazo[4,5-b]pyridin-3-yl]phenyl}methyl)amino]ethyl}-3-chloro-2-hydroxybenzaldehyde] |
| 2 | 6.2 | < 100 nM | < 100 nM | 100 to 500 nM | CC(=O)Nc1cccc(-c2ccc3nc(-c4cccnc4N)n(-c4ccc(CNCCc5ccc(C=O)c(O)c5)cc4)c3n2)c1 [Compound 121, N-{3-[2-(2-aminopyridin-3-yl)-3-[4-({[2-(4-formyl-3-hydroxyphenyl)ethyl]amino}methyl)phenyl]imidazo[4,5-b]pyridin-5-yl]phenyl}acetamide] |
| 1 | 2.2 | < 100 nM | < 100 nM | 100 to 500 nM | Nc1ncccc1-c1nc2ccc(-c3ccccc3)nc2n1-c1ccc(CNCCc2cc(O)c(C=O)c(F)c2)cc1 [Compound 123, 4-(2-((4-(2-(2-aminopyridin-3-yl)-5-phenyl-3H-imidazo[4,5-b]pyridin-3-yl)benzyl)amino)ethyl)-2-fluoro-6-hydroxybenzaldehyde] |
| 3.1 | 13 | 100 to 500 nM | > 500 nM | > 500 nM | Nc1ncccc1-c1nc2cc(-c3ccccc3)cnc2n1-c1ccc(CNCCc2ccc(C=O)c(O)c2)cc1 [Compound 124, 4-(2-((4-(2-(2-aminopyridin-3-yl)-6-phenyl-3H-imidazo[4,5-b]pyridin-3-yl)benzyl)amino)ethyl)-2-hydroxybenzaldehyde] |
| 2.6 | 7.7 | < 100 nM | < 100 nM | 100 to 500 nM | CC(NCCc1ccc(C=O)c(O)c1)c1ccc(-n2c(-c3cccnc3N)nc3ccc(-c4ccccc4)nc32)cc1 (stereo not drawn) [Compound 127, 4v-(2-((1-(4-(2-(2-aminopyridin-3-yl)-5-phenyl-3H-imidazo[4,5-b]pyridin-3-yl)phenyl)ethyl)amino)ethyl)-2-hydroxybenzaldehyde] |
| 0.51 | 2.5 | < 100 nM | < 100 nM | < 100 nM | Nc1ncccc1-c1nc2ccc(-c3ccccc3)nc2n1-c1ccc(CNCCCc2ccc(O)c(C=O)c2)cc1 [Compound 129, 5-(3-((4-(2-(2-aminopyridin-3-yl)-5-phenyl-3H-imidazo[4,5-b]pyridin-3-yl)benzyl)amino)propyl)-2-hydroxybenzaldehyde] |
| 0.91 | 4.1 | < 100 nM | < 100 nM | 100 to 500 nM | Nc1ncccc1-c1nc2ccc(-c3ccccc3)nc2n1-c1ccc(C(=O)NCc2ccc(C=O)c(O)c2)cc1 [Compound 137, 4-(2-(2-aminopyridin-3-yl)-5-phenyl-3H-imidazo[4,5-b]pyridin-3-yl)-N-(4-formyl-3-hydroxybenzyl)benzamide] |
